The source made the active and inactive calls.
What was measured:
[1] = tested on: Mus musculus; test: Toxicity in BALB/c nude mouse assessed as change in body weight at 1000 mg/kg, iv measured up to 14 days; type: organism-based; conditions: in vivo, 336 h
[2] = tested on: K562/A02; test: Anti-proliferative activity against P-gp overexpressing/drug resistant human K562/A02 cells assessed as decrease in cell survival at 1 uM in presence of hemoglobin measured after 24 hrs by MTS assay; type: functional, cell-based
[3] = tested on: K562; test: Anti-proliferative activity against human K562 cells measured after 72 hrs by MTS assay; type: functional, cell-based; conditions: K562, 72 h
[4] = species on record: Homo sapiens; test: Inhibition of NF-kappaB phosphorylation in P-gp overexpressing/drug resistant human K562/A02 cells at 8 uM after 24 hrs by Western blot analysis
[5] = target: RAC-alpha serine/threonine-protein kinase (Homo sapiens) (UniProt P31749); test: Inhibition of AKT phosphorylation in P-gp overexpressing/drug resistant human K562/A02 cells at 8 uM after 24 hrs by Western blot analysis
[6] = tested on: K562/A02; test: Down regulation of HIF-alpha expression in human K562/A02 cells at 2 uM in presence of hemoglobin measured after 24 hrs by Western blot analysis; type: functional, cell-based
[7] = tested on: K562/A02; test: Antitumor activity against P-gp overexpressing/drug resistant human K562/A02 cells xenografted in BALB/c nude mouse assessed as reduction in tumor weight at 120 mg/kg, iv administered every other day for 21 days measured post last dose; type: functional, organism-based
[8] = Permeability in human Caco2 cells assessed as concentration ratio of basolateral to apical side at 100 uM measured at 10 mins post dose by HPLC analysis; type: ADME, cell-based; conditions: caco-2, 10 min
[9] = Drug metabolism in P-gp overexpressing/drug resistant human K562/A02 cells assessed as nitric oxide production at 100 uM in presence of hemoglobin measured over 30 to 300 mins by Griess assay; type: ADME, cell-based; conditions: k562/a02, 100 µM
[10] = tested on: K562/A02; test: Down regulation of HIF-alpha expression in P-gp overexpressing/drug resistant human K562/A02 cells at 1 uM measured after 48 hrs by Western blot analysis; type: functional, cell-based
[11] = tested on: Mus musculus; test: Toxicity in BALB/c nude mouse assessed as effect on survival at 1000 mg/kg, iv measured up to 14 days; type: organism-based; conditions: in vivo, 336 h
[12] = tested on: K562/A02; test: Induction of nitration of mitochondrial cytochrome c in P-gp overexpressing/drug resistant human K562/A02 cells at 10 uM measured after 24 hrs by Western blot analysis; type: functional, cell-based
[13] = tested on: K562; test: Effect on rhodamine123 accumulation in human K562 cells at 0.33 to 10 uM measured after 1 hr by flow cytometry; type: functional, cell-based
[14] = Resistant factor, ratio of IC50 for P-gp overexpressing/drug resistant human K562/A02 cells to IC50 for human K562 cells; type: functional
[15] = tested on: K562/A02; test: Effect on P-gp expression in P-gp overexpressing/drug resistant human K562/A02 cells up to 8 uM by Western blot analysis; type: functional, cell-based
[16] = tested on: Mus musculus; test: Toxicity in BALB/c nude mouse assessed as abnormality in drinking at 1000 mg/kg, iv measured up to 14 days; type: organism-based; conditions: in vivo, 336 h
[17] = species on record: Homo sapiens; test: Induction of nitration of P-gp in P-gp overexpressing/drug resistant human K562/A02 cells at 10 uM in presence of hemoglobin measured after 24 hrs by Western blot analysis
[18] = species on record: Homo sapiens; test: Effect on P-gp ATPase activity in human K562/A02 cell membranes assessed as remaining ATP level by measuring relative light units at 40 uM in presence of MgATP measured after 40 mins by luminescence based P-gp-Glo assay (reference value: 216508 +/- 7426 RLU)
[19] = tested on: Mus musculus; test: Toxicity in BALB/c nude mouse assessed as abnormality in eating at 1000 mg/kg, iv measured up to 14 days; type: organism-based; conditions: in vivo, 336 h
[20] = tested on: K562/A02; test: Induction of nitration of mitochondrial cytochrome c in P-gp overexpressing/drug resistant human K562/A02 cells at 10 uM in presence of hemoglobin measured after 24 hrs by Western blot analysis; type: functional, cell-based
[21] = Permeability in human Caco2 cells assessed as concentration ratio of basolateral to apical side at 100 uM measured at 5 mins post dose by HPLC analysis; type: ADME, cell-based; conditions: caco-2, 5 min
[22] = Drug metabolism in P-gp overexpressing/drug resistant human K562/A02 cells assessed as nitric oxide production at 100 uM measured at 240 mins by Griess assay; type: ADME, cell-based; conditions: k562/a02, 4 h
[23] = species on record: Homo sapiens; test: Inhibition of ERK phosphorylation in P-gp overexpressing/drug resistant human K562/A02 cells at 8 uM after 24 hrs by Western blot analysis
[24] = target: RAC-alpha serine/threonine-protein kinase (Homo sapiens) (UniProt P31749); test: Inhibition of AKT phosphorylation in human K562/A02 cells at 1 uM measured after 48 hrs by Western blot analysis; type: cell-based
[25] = target: RAC-alpha serine/threonine-protein kinase (Homo sapiens) (UniProt P31749); test: Inhibition of AKT phosphorylation in human K562/A02 cells at 2 uM in presence of hemoglobin measured after 24 hrs by Western blot analysis; type: cell-based
[26] = tested on: K562/A02; test: Antitumor activity against P-gp overexpressing/drug resistant human K562/A02 cells xenografted in BALB/c nude mouse assessed as reduction in tumor volume at 120 mg/kg, iv administered every other day for 21 days measured every other day during dosing; type: functional, organism-based
[27] = tested on: Mus musculus; test: Induction of nitration of mitochondrial cytochrome c in tumor of iv dosed BALB/c nude mouse xenografted with P-gp overexpressing/drug resistant human K562/A02 cells administered every other day for 21 days by Western blot analysis; type: functional, organism-based
[28] = Drug metabolism in P-gp overexpressing/drug resistant human K562/A02 cells assessed as nitric oxide production at 20 uM by DAF-FMDA staining based fluorescent microscopic analysis; type: ADME, cell-based; conditions: k562/a02, 20 µM, TDE = time-dependent effect
[29] = tested on: Mus musculus; test: Toxicity in P-gp overexpressing/drug resistant human K562/A02 cells xenografted BALB/c nude mouse assessed as change in body weight at 120 mg/kg, iv administered every other day for 21 days measured on day 2,4,6,8,10,12,14,16,18,20,22 of dosing; type: organism-based; conditions: in vivo, 504 h
[30] = species on record: Homo sapiens; test: Inhibition of NF-kappaB phosphorylation in human K562/A02 cells at 2 uM in presence of hemoglobin measured after 24 hrs by Western blot analysis; type: cell-based
[31] = Drug metabolism in P-gp overexpressing/drug resistant human K562/A02 cells assessed as nitric oxide production at 20 uM up to 6 hrs by Griess assay; type: ADME, cell-based; conditions: k562/a02, 6 h
[32] = tested on: K562/A02; test: Anti-proliferative activity against P-gp overexpressing/drug resistant human K562/A02 cells measured after 72 hrs by MTS assay; type: functional, cell-based; conditions: K562/A02, 72 h
[33] = species on record: Homo sapiens; test: Inhibition of NF-kappaB phosphorylation in human K562/A02 cells at 1 uM measured after 48 hrs by Western blot analysis; type: cell-based
[34] = species on record: Homo sapiens; test: Induction of nitration of P-gp in P-gp overexpressing/drug resistant human K562/A02 cells at 10 uM measured after 24 hrs by Western blot analysis
[35] = tested on: K562/A02; test: Effect on P-gp expression in P-gp overexpressing/drug resistant human K562/A02 cells up to 8 uM by RT-PCR method; type: functional, cell-based
[36] = species on record: Homo sapiens; test: Inhibition of ERK phosphorylation in human K562/A02 cells at 1 uM measured after 48 hrs by Western blot analysis; type: cell-based
[37] = species on record: Homo sapiens; test: Inhibition of ERK phosphorylation in human K562/A02 cells at 2 uM in presence of hemoglobin measured after 24 hrs by Western blot analysis; type: cell-based
[38] = species on record: Homo sapiens; test: Inhibition of P-gp in human K562/A02 cells assessed as increase in intracellular rhodamine123 accumulation at 0.33 to 10 uM measured after 1 hr by flow cytometry; type: cell-based
[39] = tested on: K562/A02; test: Antitumor activity against P-gp overexpressing/drug resistant human K562/A02 cells xenografted in BALB/c nude mouse assessed as tumor growth inhibition at 120 mg/kg, iv administered every other day for 21 days measured post last dose relative to control; type: functional; conditions: 504 h, read-out: TGI
[40] = tested on: K562/A02; test: Down regulation of HIF-alpha expression in P-gp overexpressing/drug resistant human K562/A02 cells at 8 uM after 24 hrs by Western blot analysis; type: functional, cell-based

Sequence of RAC-alpha serine/threonine-protein kinase (Homo sapiens) (P31749 whole entry): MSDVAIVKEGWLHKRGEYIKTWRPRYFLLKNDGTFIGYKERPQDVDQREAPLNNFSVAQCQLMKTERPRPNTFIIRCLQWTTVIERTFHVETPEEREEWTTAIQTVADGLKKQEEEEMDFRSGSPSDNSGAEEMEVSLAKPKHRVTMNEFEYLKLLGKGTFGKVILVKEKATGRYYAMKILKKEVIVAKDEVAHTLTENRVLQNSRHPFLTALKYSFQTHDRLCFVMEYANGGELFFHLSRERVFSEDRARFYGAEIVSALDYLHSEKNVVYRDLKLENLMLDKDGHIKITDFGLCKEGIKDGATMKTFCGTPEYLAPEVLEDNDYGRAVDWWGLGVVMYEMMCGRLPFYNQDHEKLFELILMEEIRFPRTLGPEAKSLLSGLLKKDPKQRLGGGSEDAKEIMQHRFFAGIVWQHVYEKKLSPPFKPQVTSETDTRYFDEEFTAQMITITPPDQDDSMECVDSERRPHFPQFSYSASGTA

COC(=O)c1cc(OC)c2c(c1-c1c(C(=O)OC3CCN(CC(=O)OCCCCOc4no[n+]([O-])c4S(=O)(=O)c4ccccc4)CC3)cc(OC)c3c1OCO3)OCO2
550 nM: IC50 [32]
Tde: Drug metabolism [28]
inactive: Activity [2] | Activity [6] | Activity [13] | Activity [15] | Activity [17] | Activity [20] | inhibition [25] | inhibition [30] | Activity [35] | inhibition [37]
241000 RLU: Activity [18]
Non-Toxic: Activity [1] | Activity [11] | Activity [16] | Activity [19] | Activity [29]
690 nM: IC50 [3]
0.8: Ratio IC50 [14]
0.53: Ratio [8]
Metabolite_Notdetected: Drug metabolism [9]
51.4%: inhibition in vivo at 120 mg/kg [39]
Metabolite_Detected: Drug metabolism [22] | Drug metabolism [31]
active: inhibition [4] | inhibition [5] | Activity [7] | Activity [10] | Activity [12] | inhibition [23] | inhibition [24] | Activity [26] | Activity [27] Dose-dependent effect | inhibition [33] | Activity [34] | inhibition [36] | inhibition [38] | Activity [40]
0.14: Ratio [21]
